This passage reports melting point results from patent US8420651B2, “Substituted 1-alkylcinnolin-4(1H)-one derivatives, preparation thereof and therapeutic application of same” (Sanofi, priority 2009, dated 2013).

Usually melting point stands for the temperature of the solid-liquid transition.

As to `O=c1c(-c2cccc(C(F)(F)F)c2)nn(CCCCC(F)(F)F)c2ccccc12`, the melting point fell in the range of 80 to 81 °C.
Under `CCCCCn1nc(-c2cccc(C(F)(F)F)c2)c(=O)c2ccccc21` stands 53 to 55 °C; under `CCCCCn1nc(-c2cccc(C(F)(F)F)c2F)c(=O)c2cccc(OC)c21`, 82 to 84 °C.
Under `COc1cccc2c(=O)c(-c3cccc(Cl)c3Cl)nn(CCCNS(C)(=O)=O)c12` stands 66 to 68 °C; under `CS(=O)(=O)NCCCn1nc(-c2cccc(Cl)c2Cl)c(=O)c2ccc(C(F)(F)F)cc21`, 80 to 83 °C; under `CCCCCn1nc(-c2cccc(C(F)(F)F)c2F)c(=O)c2ccccc21`, 78 to 80 °C.
`CC[S+]([O-])CCn1nc(-c2cccc(Cl)c2Cl)c(=O)c2cccc(OC)c21` (stereo not drawn) registered a melting point of 128 to 130 °C.
`COc1cccc2c(=O)c(-c3cccc(Cl)c3Cl)nn(CCCN(C)S(C)(=O)=O)c12` had a melting point of 179 to 181 °C.
Under `CCSCCn1nc(-c2cccc(Cl)c2Cl)c(=O)c2ccc(Cl)cc21` stands 75 to 77 °C; under `CC[S+]([O-])CCn1nc(-c2cccc(Cl)c2Cl)c(=O)c2ccc(Cl)cc21` (stereo not drawn), 75 to 77 °C.
`CCS(=O)(=O)CCn1nc(-c2cccc(Cl)c2Cl)c(=O)c2ccc(Cl)cc21` gave a melting point of 76 to 79 °C.
Under `CCCCCn1nc(-c2cccc(OC(F)(F)F)c2)c(=O)c2cccc(OC)c21` stands 50 to 52 °C; under `CCOCCn1nc(-c2cccc(Cl)c2Cl)c(=O)c2cccc(OC)c21`, 134 to 135 °C.
Consider `COc1cccc2c(=O)c(-c3cccc(Cl)c3Cl)nn(CCCNS(=O)(=O)N(C)C)c12`, for which the melting point fell in the range of 62 to 65 °C.
Under `O=c1c(-c2cccc(C(F)(F)F)c2F)nn(CCCCF)c2ccccc12` stands 91 to 93 °C; under `CCCCCn1nc(-c2cccc(C(F)(F)F)c2Cl)c(=O)c2cccc(OC)c21`, 90 to 91 °C; under `O=c1c(-c2cccc(C(F)(F)F)c2F)nn(CCCCC(F)(F)F)c2ccccc12` [Compound 4, 3-[2-Fluoro-3-(trifluoromethyl)phenyl]-1-(5,5,5-trifluoropentyl)cinnolin-4(1H)-one], 118 to 120 °C.
For the molecule `O=c1c(-c2cccc(C(F)(F)F)c2F)nn(CCCC(F)(F)F)c2ccccc12` [Compound 6, 3-[2-Fluoro-3-(trifluoromethyl)phenyl]-1-(4,4,4-trifluorobutyl)cinnolin-4(1H)-one], the melting point lay in the range of 96 to 99 °C.
Under `CSCCCn1nc(-c2cccc(C(F)(F)F)c2F)c(=O)c2ccccc21` [Compound 7, 3-(2-Fluoro-3-(trifluoromethyl)phenyl)-1-[3-(methylthio)propyl]cinnolin-4(1H)-one] stands 80 to 83 °C; under `COc1ccc(F)cc1-c1nn(CCCC(F)(F)F)c2ccccc2c1=O` [Compound 16, 3-(5-Fluoro-2-methoxyphenyl)-1-(4,4,4-trifluorobutyl)cinnolin-4(1H)-one], 118 to 121 °C.
Under `O=c1c(-c2cccc(C(F)(F)F)c2Cl)nn(CCCCC(F)(F)F)c2cc(Cl)ccc12` [Compound 17, 7 Chloro-3-[2-chloro-3-(trifluoromethyl)phenyl]-1-(5,5,5-trifluoropentyl)-cinnolin-4(1H)-one] stands 137 to 138 °C; under `COc1cccc2c(=O)c(-c3cccc(C(F)(F)F)c3F)nn(CCCNS(C)(=O)=O)c12` [Compound 18, N-(3-[3-[2-Fluoro-3-(trifluoromethyl)phenyl]-8-methoxy-4-oxocinnolin-1(4H)-yl]propyl)methanesulphonamide], 62 to 64 °C.
Under `COc1cccc2c(=O)c(-c3cccc(C(F)(F)F)c3Cl)nn(CCCNS(C)(=O)=O)c12` [Compound 19, N-[3-[3-[2-Chloro-3-(trifluoromethyl)phenyl]-8-methoxy-4-oxocinnolin-1(4H)-yl]propyl]methanesulphonamide] stands 95 to 98 °C; under `COc1cccc2c(=O)c(-c3cccc(F)c3C(F)(F)F)nn(CCCNS(C)(=O)=O)c12` [Compound 20, N-[3-[3-[3-Fluoro-2-(trifluoromethyl)phenyl]-8-methoxy-4-oxocinnolin-1(4H)-yl]propyl]methanesulphonamide], 66 to 68 °C.
As to `COc1cccc2c(=O)c(-c3cccc(C(F)(F)F)c3F)nn(CCCS(C)(=O)=O)c12` [Compound 24, 3-[2-Fluoro-3-(trifluoromethyl)phenyl]-1-(3-(methanesulphonyl)propyl)-8-methoxy-1H-cinnolin-4-one], the melting point was in the range of 138 to 139 °C.
Under `CS(=O)(=O)NCCCn1nc(-c2cccc(C(F)(F)F)c2F)c(=O)c2ccc(C(F)(F)F)cc21` [Compound 25, N-{3-[3-[2-Fluoro-3-(trifluoromethyl)phenyl]-4-oxo-7-trifluoromethyl-4H-cinnolin-1-yl]propyl}methanesulphonamide] stands 128 to 130 °C.
Under `CS(=O)(=O)NCCCn1nc(-c2cccc(C(F)(F)F)c2F)c(=O)c2ccccc21` [Compound 27, N-{3-[3-[2-Fluoro-3-(trifluoromethyl)phenyl]-4-oxo-4H-cinnolin-1-yl]-propyl}methanesulphonamide] stands 149 to 152 °C; under `CCSCCn1nc(-c2cccc(C(F)(F)F)c2F)c(=O)c2cccc(OC)c21` [Compound 29, 1-[2-(Ethylthio)ethyl]-3-[2-fluoro-3-(trifluoromethyl)phenyl]-8-methoxycinnolin-4(1H)-one], 73 to 75 °C.
Under `CC[S+]([O-])CCn1nc(-c2cccc(C(F)(F)F)c2F)c(=O)c2cccc(OC)c21` (stereo not drawn) [Compound 30, 1-[2-(Ethylsulphinyl)ethyl]-3-[2-fluoro-3-(trifluoromethyl)phenyl]-8-methoxycinnolin-4(1H)-one] stands 99 to 101 °C.
The molecule `CCS(=O)(=O)CCn1nc(-c2cccc(C(F)(F)F)c2F)c(=O)c2cccc(OC)c21` [Compound 31, 1-[2-(Ethylsulphonyl)ethyl]-3-[2-fluoro-3-(trifluoromethyl)phenyl]-8-methoxycinnolin-4(1H)-one] showed a melting point of 138 to 139 °C.
Under `COc1cccc2c(=O)c(-c3cccc(OC(F)(F)F)c3)nn(CCCNS(C)(=O)=O)c12` [Compound 35, N-(3-{8-Methoxy-4-oxo-3-[3-(trifluoromethoxy)phenyl]cinnolin-1(4H)-yl}propyl)methanesulphonamide] stands 98 to 101 °C; under `COc1cccc2c(=O)c(-c3cccc(C(F)(F)F)c3F)nn(CCCNS(=O)(=O)C(F)(F)F)c12` [Compound 36, 1,1,1-Trifluoro-N-(3-{3-[2-fluoro-3-(trifluoromethyl)phenyl]-8-methoxy-4-oxocinnolin-1(4H)-yl}propyl)methanesulphonamide], 127 to 130 °C; under `COc1cccc2c(=O)c(-c3cccc(C(F)(F)F)c3F)nn(CCCNC(=O)C(F)(F)F)c12` [Compound 37, 2,2,2-Trifluoro-N-(3-{3-[2-fluoro-3-(trifluoromethyl)phenyl]-8-methoxy-4-oxocinnolin-1(4H)-yl}propyl)acetamide], 51 to 53 °C.
Turning to `CS(=O)(=O)NCCCn1nc(-c2cccc(C(F)(F)F)c2F)c(=O)c2ccc(Cl)cc21` [Compound 38, N-(3-{7-Chloro-3-[2-fluoro-3-(trifluoromethyl)phenyl]-4-oxocinnolin-1(4H)-yl}propyl)methanesulphonamide], the melting point is 155 to 157 °C.
Under `CCSCCn1nc(-c2cccc(C(F)(F)F)c2F)c(=O)c2ccc(Cl)cc21` [Compound 41, 7-Chloro-1-[2-(ethylthio)ethyl]-3-[2-fluoro-3-(trifluoromethyl)phenyl]cinnolin-4(1H)-one] stands 117 to 119 °C; under `CCSCCn1nc(-c2cccc(OC(F)(F)F)c2)c(=O)c2ccc(Cl)cc21` [Compound 46, 7-Chloro-1-[2-(ethylthio)ethyl]-3-[3-(trifluoromethoxy)phenyl]cinnolin-4(1H)-one], 66 to 68 °C; under `CCSCCn1nc(-c2cccc(OC(F)(F)F)c2)c(=O)c2cccc(OC)c21` [Compound 49, 1-[2-(Ethylthio)ethyl]-8-methoxy-3-[3-(trifluoromethoxy)phenyl]cinnolin-4(1H)-one], 86 to 89 °C.
Under `CCS(=O)(=O)CCn1nc(-c2cccc(OC(F)(F)F)c2)c(=O)c2cccc(OC)c21` [Compound 50, 1-[2-(Ethylsulphonyl)ethyl]-8-methoxy-3-[3-(trifluoromethoxy)phenyl]cinnolin-4(1H)-one] stands 130 to 132 °C; under `COc1cccc2c(=O)c(-c3cccc(C(F)(F)F)c3F)nn(CCNS(C)(=O)=O)c12` [Compound 55, N-(2-{3-[2-Fluoro-3-(trifluoromethyl)phenyl]-8-methoxy-4-oxocinnolin-1(4H)-yl}ethyl)methanesulphonamide], 145 to 146 °C.
